Results published in publication PMC9535023, “Inhibition of phospholipase D1 induces immunogenic cell death and potentiates cancer immunotherapy in colorectal cancer” (Experimental & Molecular Medicine, 2022).
Like-named read-outs stand apart in the source and are kept apart here.

Tests used:
CRC cells = assay: Cell migration and invasion assay; format: cell-based
Method: For the cell migration assay, the cells were added to an 8 μm pore transwell polycarbonate chamber (SPL Life Science). After 24 h of incubation, the number of cells that migrated through the membrane into the lower chamber was counted. For the cell invasion assay, Matrigel (dilution at 1:5; BD Biosciences) was added to the Transwell chambers and incubated for 5 h. The cells were then seeded; after 24 h of incubation, the invaded cells on the bottom of the membrane were fixed with 10% formalin for 20 min and stained with 0.1% crystal violet for 3 h. The extent of invasion was expressed as the average number of cells per microscopic field.

DLD1 cells [1] = assay: Sphere formation assay; format: cell-based; conditions: limiting dilution assays
Method: DLD1 cells were cultured in DMEM/F-12 with epidermal growth factor (20 ng/mL), basic fibroblast growth factor (20 ng/mL), and B27 supplements in noncoated dishes. For serial passaging, the sphere cells were dissociated into single cells with Accutase (Invitrogen) once every 4–7 days and incubated. After the secondary generation, the DLD1 sphere cells were used for the experiments. […] The cells were fixed with 4% paraformaldehyde, and sphere formation was calculated from 10 positions in each well by an Olympus BX53 microscope and cellSens image acquisition software (Olympus).

hERG channel = hERG channel (Homo sapiens, UniProt Q12809); assay: hERG ligand-binding assay; conditions: HEK293 cells transfected with hERG
Method: (§1) Both hERG assays were conducted as described previously.

HCT116 cells = assay: miR-4496 promoter and β-catenin 3′-UTR luciferase reporters; format: cell-based
FHC cells = assay: Cell cycle analysis (BrdU/7-AAD flow cytometry), FHC; format: cell-based; conditions: FHC normal fetal colonic mucosa cells
Method: (§2) For cell cycle analysis, the cells were treated with Α3373 or 5-FU. The cells were labeled with 10 μΜ bromodeoxyuridine (BrdU) for 2 h. Subsequently, the cells were stained with 7-aminoactinomycin D (7-AAD, Invitrogen) and a fluorescein isothiocyanate (FITC)-conjugated anti-BrdU antibody (Invitrogen). Apoptotic cells were detected using an Annexin V-FITC Apoptosis Detection Kit (BD Biosciences). The cells were analyzed using BD FACSAria III (BD Biosciences), and data analysis was performed using FlowJo v10.0 (BD Biosciences).

In vivo pharmacokinetics = assay: In vivo pharmacokinetics; set-up: species or system mouse; AUCinf: unit not given here; conditions: for half-life: read-out: t1/2 (terminal half-life) (converted)
Method: Supplementary Table 4. Plasma pharmacokinetics of A3373
The pharmacokinetic parameters were estimated with non-compartmental analysis using
PKSolver, based on the concentration- time profiles of A3373 in the plasma samples following
single IV (5 mg/kg) and PO (10 mg/kg) dose in mice (n=3). Abbreviations: T1 /2, elimination
half life; Tmax, time to peak concentration; AUC, area under the concentration–time curve;
MRT, mean residence ti me; Vz, the volume in the terminal state; CL, clearance; Vss, steady-
state volume of distribution; F, absolute bioavailability. […]
Male ICR mice (8 weeks old, 30~35 g) were accli mated to the testing facility in a temperature
and humidity controlled condition for approximately a week prior to the study. 1 mg/mL of
A3373 solution in dimethylacetamide/tween 80/saline (10/10/80 vol%) was dosed orally (10
mg/kg in a volume of 10 mL/kg) or by tail vein injection (5 mg/kg in a volume of 5 mL/kg) to
the animals. About 40 μL of blood samples were collected in BD Microtainer plasma s eparator
tubes at selected times through the saphenous vein over 24 hour s post-dosing. Blood samples
were centrifuged at 6,000 x g for 5 minutes to separat e plasma and stored in a freezer until
analyzed. Protein precipitation was conduct ed on 15 μL aliquot of plas ma samples with 3
volumes of acetonitrile containing glipizide as analytical internal standard. After centrifugation,
the supernatant was analyzed by Agilent 6460 QQQ LC-MS/MS system in a negative MRM
mode. Briefly, chromatography was performed on a Phenomenex Kinetex C18 column (2.1 ×
50 mm, 2.6 μm) with a linear gradient of the mobil e phases 10 mM aqu eous ammonium acetate
and acetonitrile. […]

PLD2 = target: T1, PLD2 (Mus musculus, UniProt P97813); assay: PLD2 activity in Pld1−/− MEFs; format: cell-based
T1 construct: endogenous in cells; host or cells: immortalized Pld1-/- mouse embryonic fibroblasts
Method: Cells were labeled with [H^3] myristic acid, and PLD activity was assessed by measuring the formation of [H^3] phosphatidylbutanol, which is the product of PLD-mediated transphosphatidylation, in the presence of 1-butanol, as previously described.
We further investigated the effect of A3373 on the enzymatic inhibition of PLD1 and PLD2 in Pld^+/+, Pld1^−/−, and Pld2^−/− MEFs. […] Kinase profiling was used to evaluate the general selectivity of the lead compounds. […] To further investigate whether inhibition of PLD1 by A3373 occurs by binding to PLD1, we first modified A3373 by adding biotinylation instead of the F present in its structure and measured PLD activity.

DLD1 cells [2] = assay: Apoptosis assay (annexin V flow cytometry), DLD1; format: cell-based
Method: as §2

[3] = Single oral dose toxicity in mice; conditions: female and male mice
hERG K^+ channel = target: T2, hERG K^+ channel (Homo sapiens, UniProt Q12809); assay: hERG patch-clamp assay in HEK293 cells transfected with hERG; format: cell-based
T2 construct: expressed in transfected cells; host or cells: HEK293
Method: as §1

[4] = tested on: AOM/DSS-induced mouse colon cancer; assay: AOM/DSS-induced colitis-associated CRC model; format: in vivo; conditions: AOM/DSS mice, 10 mg/kg
Method: Supplementary materials and methods […]
The AOM/DSS colorect al cancer model was est ablished using 6 -weeks-old C57BL/6 male mice (Koat ech). Mice were given a single intraperitoneal (IP) injection of the mutagen AOM (10 mg/kg), aft er whi ch t hey were given three periods drinking water contai ning 2.5% DSS for 5 days, followed by 15 days of normal water. AOM/DSS-induced mice were given either vehicle (PBS containing 8% DMSO and 1% Tween 80) or 10 mg/kg A3373 compound every day by oral administration for 45 days. […]

[5] = male, ICR, mouse, plasma, IV 5 mg/kg, mice
[6] = male, ICR, mouse, plasma, PO 10 mg/kg, mice

T1 sequence (P97813 whole entry): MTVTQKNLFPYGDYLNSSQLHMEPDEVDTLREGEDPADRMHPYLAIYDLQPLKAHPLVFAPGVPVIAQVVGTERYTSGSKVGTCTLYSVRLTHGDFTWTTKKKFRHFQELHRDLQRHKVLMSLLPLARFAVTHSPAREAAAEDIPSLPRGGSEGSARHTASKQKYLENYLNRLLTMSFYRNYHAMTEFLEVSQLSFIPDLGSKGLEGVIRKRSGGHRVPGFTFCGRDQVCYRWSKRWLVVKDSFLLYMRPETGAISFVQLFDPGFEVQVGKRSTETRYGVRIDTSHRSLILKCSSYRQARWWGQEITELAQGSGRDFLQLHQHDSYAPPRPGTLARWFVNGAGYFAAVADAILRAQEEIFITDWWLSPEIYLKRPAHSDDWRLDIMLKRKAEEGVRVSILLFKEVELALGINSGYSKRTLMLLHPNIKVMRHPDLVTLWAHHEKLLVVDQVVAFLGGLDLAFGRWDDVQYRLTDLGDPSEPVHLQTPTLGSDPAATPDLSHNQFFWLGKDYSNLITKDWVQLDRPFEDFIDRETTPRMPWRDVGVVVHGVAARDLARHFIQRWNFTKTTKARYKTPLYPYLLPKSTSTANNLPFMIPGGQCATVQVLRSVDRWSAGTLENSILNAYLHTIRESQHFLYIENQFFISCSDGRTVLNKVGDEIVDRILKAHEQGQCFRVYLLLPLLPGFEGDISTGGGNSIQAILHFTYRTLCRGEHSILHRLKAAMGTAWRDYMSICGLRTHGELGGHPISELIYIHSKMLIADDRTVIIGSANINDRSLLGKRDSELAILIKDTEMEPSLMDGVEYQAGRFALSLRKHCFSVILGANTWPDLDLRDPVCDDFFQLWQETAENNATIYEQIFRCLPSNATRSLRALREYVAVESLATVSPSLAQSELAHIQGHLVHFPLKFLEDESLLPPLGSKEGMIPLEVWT
hERG channel, sequence (Q12809 whole entry): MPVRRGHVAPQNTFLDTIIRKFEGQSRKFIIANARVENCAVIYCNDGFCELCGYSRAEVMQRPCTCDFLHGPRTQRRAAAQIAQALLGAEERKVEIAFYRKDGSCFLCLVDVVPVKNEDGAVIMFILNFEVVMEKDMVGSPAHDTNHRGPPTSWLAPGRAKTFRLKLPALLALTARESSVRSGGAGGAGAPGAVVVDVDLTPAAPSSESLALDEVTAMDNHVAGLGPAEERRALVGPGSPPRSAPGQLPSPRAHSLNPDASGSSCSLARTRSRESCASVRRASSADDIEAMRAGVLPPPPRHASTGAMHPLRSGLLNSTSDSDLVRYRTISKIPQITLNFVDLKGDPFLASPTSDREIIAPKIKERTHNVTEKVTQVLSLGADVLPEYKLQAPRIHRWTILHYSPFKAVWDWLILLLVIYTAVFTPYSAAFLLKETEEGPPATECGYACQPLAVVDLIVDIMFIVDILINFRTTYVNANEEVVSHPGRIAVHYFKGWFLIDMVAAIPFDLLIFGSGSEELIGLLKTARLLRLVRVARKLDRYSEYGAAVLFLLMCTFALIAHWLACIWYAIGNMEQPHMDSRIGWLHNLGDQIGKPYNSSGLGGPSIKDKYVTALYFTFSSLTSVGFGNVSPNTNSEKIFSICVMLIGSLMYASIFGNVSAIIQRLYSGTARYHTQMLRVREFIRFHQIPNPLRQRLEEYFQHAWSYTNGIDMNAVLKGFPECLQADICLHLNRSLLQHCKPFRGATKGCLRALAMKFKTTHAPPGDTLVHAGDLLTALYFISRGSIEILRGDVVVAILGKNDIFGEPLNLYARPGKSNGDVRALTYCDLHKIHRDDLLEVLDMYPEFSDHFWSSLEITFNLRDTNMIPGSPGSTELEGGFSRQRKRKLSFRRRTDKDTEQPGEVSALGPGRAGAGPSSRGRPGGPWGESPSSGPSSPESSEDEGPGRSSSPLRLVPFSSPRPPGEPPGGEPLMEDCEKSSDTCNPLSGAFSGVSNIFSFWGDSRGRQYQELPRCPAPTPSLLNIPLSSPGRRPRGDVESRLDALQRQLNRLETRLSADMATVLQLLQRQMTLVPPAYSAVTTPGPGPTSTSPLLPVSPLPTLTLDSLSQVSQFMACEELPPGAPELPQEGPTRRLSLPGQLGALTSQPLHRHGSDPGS
T2 sequence (Q12809 whole entry): as above

## O=C(Nc1cc(C(F)(F)F)cc(C(F)(F)F)c1)c1cc2cc(F)ccc2[nH]1 [Compound A3373]
CRC cells
  Wnt3a-induced migration and invasion: significantly suppressed Wnt3a-induced migration and invasion
DLD1 cells [1]
  sphere-forming capacity: significantly decreased the sphere-forming capacity
hERG channel
  inhibition at 10 µM: 3.4%
HCT116 cells
  luciferase activity of the β-catenin 3′-UTR reporter: significantly suppressed the luciferase activity
  promoter activity of miR-4496: increased the promoter activity of miR-4496
FHC cells
  cell cycle / S phase in FHC cells, in words: had no effect on FHC cells
In vivo pharmacokinetics; IV 5 mg/kg, mice, 5 mg/kg
  t1/2 (terminal half-life): 3.2 h
In vivo pharmacokinetics; PO 10 mg/kg, male ICR mice
  AUCinf: 13,647.5 ± 1506.9
  Tmax: 0.5 h
In vivo pharmacokinetics; male, ICR, mouse, plasma, iv, 5 mg/kg, IV 5 mg/kg, mice, read-out: Vss (steady state volume)
  Vd: 2.1 ± 0.1 L/kg
In vivo pharmacokinetics; male, ICR, mouse, plasma, iv, 5 mg/kg, IV 5 mg/kg, mice, read-out: Vz
  Vd: 3.7 L/kg
In vivo pharmacokinetics; male, ICR, mouse, plasma, iv, 5 mg/kg, IV 5 mg/kg, mice
  half-life: ~3.2 h
In vivo pharmacokinetics; male, ICR, mouse, plasma, po, 10 mg/kg, PO 10 mg/kg, mice
  half-life: 3.8 h
In vivo pharmacokinetics; [5]
  AUC(0-inf): 6.32 µg·h/mL
  AUC(0-t): 6.3 µg·h/mL
  MRT: 2.6 h
In vivo pharmacokinetics; male, ICR, mouse, plasma, IV 5 mg/kg, mice, read-out: CL (clearance) (converted)
  clearance: 0.8 L/h/kg
In vivo pharmacokinetics; male, ICR, mouse, plasma, PO 10 mg/kg vs IV 5 mg/kg, mice, read-out: F (oral bioavailability)
  bioavailability: 108%
In vivo pharmacokinetics; [6]
  AUC(0-inf): 13.6 µg·h/mL
  AUC(0-t): 13.5 µg·h/mL
  MRT: 5.6 h
In vivo pharmacokinetics; male, ICR, mouse, plasma, PO 10 mg/kg, mice, read-out: tmax
  Tmax: 0.5 h
In vivo pharmacokinetics; mouse, plasma, PO 10 mg/kg, male ICR mice
  Cmax: 2.63 ± 0.183 µg/mL
PLD2; 2 μM, Pld−/− MEFs
  PLD2 activity, in words: not PLD2 activity
PLD2; Pld1−/− MEFs
  IC50: 15.1 µM
DLD1 cells [2]
  apoptosis of CRC cells, in words: significantly promoted the apoptosis of CRC cells alone
[3]
  approximate lethal dose: over 2000 mg/kg
hERG K^+ channel
  IC50: > 50 µM
[4]
  CD8 expression (IHC): increased the expression level of CD8
  active caspase-3, Ki67 and CD31 in tumor tissues (IHC): increased the level of active caspase-3 and decreased the levels of Ki67 and CD31
  do not eat-me and eat-me signals in tumor tissues (IHC): decreased the expression of “do not eat-me” signals but increased that of “eat-me” signals
  immune checkpoints (PD1, B7H4) and Foxp3 (IHC): reduced the expression of immune checkpoints (PD1 and B7H4) and Foxp3
  mortality: significantly lower
  number of intestinal polyps: significantly lower
  tumor formation: attenuated the tumor formation
  β-catenin and downstream target proteins (IHC): suppressed the levels of β-catenin and its downstream target proteins
